From ChEMBL document CHEMBL1201862, “PubChem BioAssay data set” (2004)
Calls of active or inactive are those of the source.

Columns and labels:
Nonstructural protein 1 = Nonstructural protein 1 (Influenza A virus, UniProt Q194T2); format: functional, Influenza A virus (A/California/07/2009(H1N1))
[1] = test system: Streptococcus sp. 'group A'; assay: growth inhibition of control SK(-) GAS strain, dose response, counter-screen for streptokinase expression inhibitor project, luminescence, kanamycin, BacTiterGlo, confirmation (AID 1900); format: functional, organism-based
[2] = cytotoxicity in HPDE-C7 cells, cell-based, fluorescence, HTS (AID 430); format: functional; details: Homo sapiens
Streptococcus = assay: Group A Streptococcus viability loss, dose response, counter-screen for streptokinase expression inhibitor project, luminescence, BacTiterGlo (AID 1915); format: functional, organism-based;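 also: potency for reduction of bacterial viability or growth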
[3] = cytotoxicity in KRAS-transformed pancreatic duct cells, primary screen, cell-based, fluorescence, HTS (AID 431); format: functional; details: Homo sapiens;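 also: cell line used: HPDE-C7K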
Leucine aminopeptidase = biological target: T1, Leucine aminopeptidase (Plasmodium falciparum 3D7, UniProt Q8IL11); assay: P. falciparum M17LAP inhibitors, primary screen, biochemical, fluorogenic H-Leu-NHMec substrate, 1536-well (AID 1619); format: functional
T1 sequence (Q8IL11 whole entry): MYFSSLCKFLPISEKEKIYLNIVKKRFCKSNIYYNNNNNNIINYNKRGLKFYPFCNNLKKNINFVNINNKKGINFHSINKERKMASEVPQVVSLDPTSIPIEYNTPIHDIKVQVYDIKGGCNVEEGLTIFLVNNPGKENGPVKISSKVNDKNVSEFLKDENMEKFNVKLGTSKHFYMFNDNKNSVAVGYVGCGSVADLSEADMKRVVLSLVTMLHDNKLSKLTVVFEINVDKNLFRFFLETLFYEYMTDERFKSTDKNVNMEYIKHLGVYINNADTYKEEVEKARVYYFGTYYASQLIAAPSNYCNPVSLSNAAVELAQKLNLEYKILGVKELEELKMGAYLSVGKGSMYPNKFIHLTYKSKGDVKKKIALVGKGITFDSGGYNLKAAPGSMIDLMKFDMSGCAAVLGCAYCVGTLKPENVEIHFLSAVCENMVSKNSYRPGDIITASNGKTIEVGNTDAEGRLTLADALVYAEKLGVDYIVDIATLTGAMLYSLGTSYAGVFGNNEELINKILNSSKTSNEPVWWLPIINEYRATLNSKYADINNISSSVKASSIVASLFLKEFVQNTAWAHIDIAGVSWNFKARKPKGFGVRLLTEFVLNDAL

[4] = biological target: T2, Voltage-gated N-type calcium channel alpha-1B subunit/Amyloid beta A4 precursor protein-binding family A member 1 (Homo sapiens, UniProt Q00975+Q02410); format: protein assay
T2 sequence (Q00975 whole entry): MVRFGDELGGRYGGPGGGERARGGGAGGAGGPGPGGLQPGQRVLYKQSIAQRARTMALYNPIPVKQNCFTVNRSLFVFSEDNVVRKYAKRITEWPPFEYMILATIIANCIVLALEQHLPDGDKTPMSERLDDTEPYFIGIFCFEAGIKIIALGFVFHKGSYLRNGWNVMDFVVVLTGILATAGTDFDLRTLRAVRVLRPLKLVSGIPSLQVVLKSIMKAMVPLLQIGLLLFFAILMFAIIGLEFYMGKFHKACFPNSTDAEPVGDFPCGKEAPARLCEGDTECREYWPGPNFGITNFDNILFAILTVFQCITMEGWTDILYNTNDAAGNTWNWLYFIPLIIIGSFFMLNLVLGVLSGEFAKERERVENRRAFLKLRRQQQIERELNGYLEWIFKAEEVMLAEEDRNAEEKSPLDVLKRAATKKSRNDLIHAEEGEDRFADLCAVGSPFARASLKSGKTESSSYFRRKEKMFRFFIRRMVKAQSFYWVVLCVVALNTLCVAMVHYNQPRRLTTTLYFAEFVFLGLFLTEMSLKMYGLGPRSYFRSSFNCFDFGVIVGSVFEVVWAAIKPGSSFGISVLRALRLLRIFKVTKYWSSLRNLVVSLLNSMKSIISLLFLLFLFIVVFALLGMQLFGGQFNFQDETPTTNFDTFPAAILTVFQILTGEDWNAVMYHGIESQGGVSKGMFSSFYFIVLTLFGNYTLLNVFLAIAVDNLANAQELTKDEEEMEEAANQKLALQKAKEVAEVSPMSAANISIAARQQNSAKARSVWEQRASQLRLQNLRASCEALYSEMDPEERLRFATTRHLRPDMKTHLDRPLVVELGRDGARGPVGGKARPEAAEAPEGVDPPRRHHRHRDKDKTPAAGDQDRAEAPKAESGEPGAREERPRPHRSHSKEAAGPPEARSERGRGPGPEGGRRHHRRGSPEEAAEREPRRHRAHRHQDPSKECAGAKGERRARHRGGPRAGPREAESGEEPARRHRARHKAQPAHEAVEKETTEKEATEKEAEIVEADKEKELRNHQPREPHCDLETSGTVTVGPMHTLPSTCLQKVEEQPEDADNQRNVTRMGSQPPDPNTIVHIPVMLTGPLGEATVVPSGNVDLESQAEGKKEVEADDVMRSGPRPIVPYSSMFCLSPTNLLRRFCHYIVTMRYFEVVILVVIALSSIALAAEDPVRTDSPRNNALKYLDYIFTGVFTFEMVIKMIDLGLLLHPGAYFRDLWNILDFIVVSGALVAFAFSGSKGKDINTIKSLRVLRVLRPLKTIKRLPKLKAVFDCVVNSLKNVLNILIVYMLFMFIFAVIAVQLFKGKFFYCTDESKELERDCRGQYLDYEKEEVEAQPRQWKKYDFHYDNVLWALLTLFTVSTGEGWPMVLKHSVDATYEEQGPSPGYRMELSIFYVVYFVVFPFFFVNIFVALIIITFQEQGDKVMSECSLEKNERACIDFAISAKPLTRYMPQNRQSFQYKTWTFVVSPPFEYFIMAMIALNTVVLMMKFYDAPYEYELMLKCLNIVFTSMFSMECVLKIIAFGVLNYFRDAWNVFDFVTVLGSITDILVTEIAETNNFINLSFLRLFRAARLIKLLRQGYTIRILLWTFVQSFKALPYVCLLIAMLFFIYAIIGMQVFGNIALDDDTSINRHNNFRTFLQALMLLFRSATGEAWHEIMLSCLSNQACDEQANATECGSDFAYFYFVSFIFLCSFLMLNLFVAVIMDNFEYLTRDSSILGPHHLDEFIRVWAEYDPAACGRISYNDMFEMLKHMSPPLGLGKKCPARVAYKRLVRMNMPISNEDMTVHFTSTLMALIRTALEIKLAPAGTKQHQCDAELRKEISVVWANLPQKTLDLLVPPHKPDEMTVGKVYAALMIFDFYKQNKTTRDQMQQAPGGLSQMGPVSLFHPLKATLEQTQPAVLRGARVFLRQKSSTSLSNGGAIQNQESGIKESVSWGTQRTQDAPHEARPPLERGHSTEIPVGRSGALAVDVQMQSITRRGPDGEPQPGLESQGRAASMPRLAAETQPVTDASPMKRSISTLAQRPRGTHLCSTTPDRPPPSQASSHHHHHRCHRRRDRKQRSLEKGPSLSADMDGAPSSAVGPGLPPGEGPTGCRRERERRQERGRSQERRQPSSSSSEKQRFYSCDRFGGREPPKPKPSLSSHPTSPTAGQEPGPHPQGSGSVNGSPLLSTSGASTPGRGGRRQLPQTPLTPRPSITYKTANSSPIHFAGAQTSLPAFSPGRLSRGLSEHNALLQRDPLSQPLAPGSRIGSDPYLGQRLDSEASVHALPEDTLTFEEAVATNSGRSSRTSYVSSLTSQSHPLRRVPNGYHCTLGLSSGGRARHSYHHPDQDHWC
T2 sequence (Q02410 whole entry): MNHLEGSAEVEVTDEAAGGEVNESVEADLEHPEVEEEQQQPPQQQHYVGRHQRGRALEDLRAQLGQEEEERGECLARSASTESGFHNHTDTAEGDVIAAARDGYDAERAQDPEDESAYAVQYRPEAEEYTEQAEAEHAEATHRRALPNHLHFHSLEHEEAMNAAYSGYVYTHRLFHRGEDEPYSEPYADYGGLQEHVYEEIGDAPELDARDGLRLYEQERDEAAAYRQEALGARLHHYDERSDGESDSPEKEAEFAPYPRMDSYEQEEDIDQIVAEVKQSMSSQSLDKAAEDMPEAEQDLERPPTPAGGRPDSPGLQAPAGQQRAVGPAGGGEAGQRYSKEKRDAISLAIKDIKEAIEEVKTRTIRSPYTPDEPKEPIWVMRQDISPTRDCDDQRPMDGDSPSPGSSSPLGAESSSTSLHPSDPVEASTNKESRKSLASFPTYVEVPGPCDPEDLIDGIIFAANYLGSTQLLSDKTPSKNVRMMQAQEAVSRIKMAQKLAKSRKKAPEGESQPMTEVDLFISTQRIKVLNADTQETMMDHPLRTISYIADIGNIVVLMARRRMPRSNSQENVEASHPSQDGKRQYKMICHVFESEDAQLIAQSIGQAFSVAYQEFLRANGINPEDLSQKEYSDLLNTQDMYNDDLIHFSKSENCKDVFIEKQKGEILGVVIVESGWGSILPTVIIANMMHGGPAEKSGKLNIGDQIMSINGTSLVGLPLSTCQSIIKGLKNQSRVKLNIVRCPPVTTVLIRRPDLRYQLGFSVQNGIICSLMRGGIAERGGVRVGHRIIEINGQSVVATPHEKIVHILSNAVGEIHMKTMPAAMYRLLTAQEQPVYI

[5] = biological target: T2, Voltage-gated N-type calcium channel alpha-1B subunit/Amyloid beta A4 precursor protein-binding family A member 1; format: protein assay; remark: listed apart in the source
Aminopeptidase N = biological target: T3, Aminopeptidase N (Plasmodium falciparum FcB1/Columbia, UniProt O96935); assay: P. falciparum M1AAP inhibitors, biochemical, fluorogenic H-Leu-NHMec substrate, 1536-well (AID 1445); parameters: species or system Plasmodium falciparum 3D7, 3D7
T3 sequence (O96935 whole entry): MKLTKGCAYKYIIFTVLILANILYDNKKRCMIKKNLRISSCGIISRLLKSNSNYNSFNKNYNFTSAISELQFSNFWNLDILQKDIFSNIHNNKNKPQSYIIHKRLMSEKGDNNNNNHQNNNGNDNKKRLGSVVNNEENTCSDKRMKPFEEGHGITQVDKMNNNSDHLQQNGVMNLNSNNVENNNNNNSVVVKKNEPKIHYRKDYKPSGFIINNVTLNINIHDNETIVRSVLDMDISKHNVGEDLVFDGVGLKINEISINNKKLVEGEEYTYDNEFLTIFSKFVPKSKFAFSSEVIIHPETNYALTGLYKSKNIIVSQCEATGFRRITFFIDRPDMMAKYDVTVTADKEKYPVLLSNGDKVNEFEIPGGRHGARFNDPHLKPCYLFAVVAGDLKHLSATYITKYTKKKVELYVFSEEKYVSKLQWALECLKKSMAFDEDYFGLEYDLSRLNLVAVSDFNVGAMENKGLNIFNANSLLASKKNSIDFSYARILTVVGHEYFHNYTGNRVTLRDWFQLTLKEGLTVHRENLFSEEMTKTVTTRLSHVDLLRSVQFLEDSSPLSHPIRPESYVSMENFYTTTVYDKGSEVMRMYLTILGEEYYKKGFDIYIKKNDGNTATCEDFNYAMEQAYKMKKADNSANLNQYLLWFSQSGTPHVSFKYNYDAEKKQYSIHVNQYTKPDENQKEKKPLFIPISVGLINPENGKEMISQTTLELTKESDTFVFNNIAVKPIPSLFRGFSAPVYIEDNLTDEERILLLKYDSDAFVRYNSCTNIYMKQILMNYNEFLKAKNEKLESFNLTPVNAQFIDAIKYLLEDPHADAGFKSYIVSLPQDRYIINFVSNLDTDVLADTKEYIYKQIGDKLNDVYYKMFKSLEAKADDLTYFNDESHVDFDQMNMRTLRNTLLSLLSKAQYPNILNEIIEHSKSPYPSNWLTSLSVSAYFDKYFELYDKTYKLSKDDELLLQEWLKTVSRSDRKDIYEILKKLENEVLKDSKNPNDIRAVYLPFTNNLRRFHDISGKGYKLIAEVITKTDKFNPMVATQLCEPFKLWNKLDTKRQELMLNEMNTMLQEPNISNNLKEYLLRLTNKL

[6] = cytotoxicity in HEK-293T cells, dose response, cytotoxicity control for BCR NF-kB inhibitor project, luminescence, B-cell screen hits (AID 489021); format: functional, cell-based;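 also: HEK-293T cells carrying an NF-kB luciferase reporter; cells exposed to compound for about 14 hours before viability readout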
INS1 = assay: beta cell apoptosis inhibitors, cytokine rescue, dose response, luminescence, retest (AID 449756); format: functional, cell-based; details: Rattus norvegicus;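 also: cell death triggered by IL-1 beta plus TNF-alpha plus IFN-gamma mixture; protective hits raise ATP signal compared with cytokine alone wells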
[7] = HepG2 cell cytotoxicity, dose response, cytotoxicity control, cherry-picked samples (AID 1159577); format: functional, cell-based
[8] = P. falciparum Dd2 growth inhibitors, dose response, SYBR Green, cherry-picked samples (AID 1159567); format: functional, cell-based
[9] = biological target: T4, Long-chain-fatty-acid--AMP ligase FadD28 (Mycobacterium tuberculosis, UniProt P9WQ59); assay: Fluorescence polarization aasay to screen for inhibitors that compete for the binding of FadD28 to a bisubstrate Measured in Biochemical System Using Plate Reader - 2147-01_Inhibitor_Dose_CherryPick_Activity.; format: functional, Mycobacterium tuberculosis H37Rv
T4 sequence (P9WQ59 whole entry): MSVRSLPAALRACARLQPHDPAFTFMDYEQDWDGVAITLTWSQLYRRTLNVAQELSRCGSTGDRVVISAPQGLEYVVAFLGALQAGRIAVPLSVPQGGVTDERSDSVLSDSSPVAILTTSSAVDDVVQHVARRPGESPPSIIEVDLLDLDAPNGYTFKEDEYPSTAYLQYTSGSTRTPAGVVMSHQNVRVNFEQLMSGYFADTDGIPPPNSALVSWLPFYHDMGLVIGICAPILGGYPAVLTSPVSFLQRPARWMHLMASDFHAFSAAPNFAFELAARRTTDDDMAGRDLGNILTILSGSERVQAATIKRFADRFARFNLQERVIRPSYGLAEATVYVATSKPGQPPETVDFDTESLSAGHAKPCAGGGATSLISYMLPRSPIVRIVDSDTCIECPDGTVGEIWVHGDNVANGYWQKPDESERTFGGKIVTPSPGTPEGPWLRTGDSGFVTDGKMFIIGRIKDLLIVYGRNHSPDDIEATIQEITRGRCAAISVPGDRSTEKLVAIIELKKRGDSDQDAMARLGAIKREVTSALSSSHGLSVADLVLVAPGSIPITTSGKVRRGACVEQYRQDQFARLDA

[10] = biological target: T5, Tyrosine-protein phosphatase non-receptor type 7 (Homo sapiens, UniProt P35236); assay: redox-dependent HePTP inhibition, mechanism study, biochemical, fluorescence (AID 2068); format: functional
T5 sequence (P35236 whole entry): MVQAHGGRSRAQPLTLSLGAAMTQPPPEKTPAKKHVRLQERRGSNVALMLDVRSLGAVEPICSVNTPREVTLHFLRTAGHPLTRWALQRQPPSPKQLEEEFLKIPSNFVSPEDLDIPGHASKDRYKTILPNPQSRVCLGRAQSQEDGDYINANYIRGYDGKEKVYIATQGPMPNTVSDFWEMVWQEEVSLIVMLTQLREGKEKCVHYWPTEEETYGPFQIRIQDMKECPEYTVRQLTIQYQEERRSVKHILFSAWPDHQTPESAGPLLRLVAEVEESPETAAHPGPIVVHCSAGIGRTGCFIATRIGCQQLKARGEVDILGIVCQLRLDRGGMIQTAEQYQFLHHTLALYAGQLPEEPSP

Chain of Nonstructural protein 1 (Q194T2 whole entry): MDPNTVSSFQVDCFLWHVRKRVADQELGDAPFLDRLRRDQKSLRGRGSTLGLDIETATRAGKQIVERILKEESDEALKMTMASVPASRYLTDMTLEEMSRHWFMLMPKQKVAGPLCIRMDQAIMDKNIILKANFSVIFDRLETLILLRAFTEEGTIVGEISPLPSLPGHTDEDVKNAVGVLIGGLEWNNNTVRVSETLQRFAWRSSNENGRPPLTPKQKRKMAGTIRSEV

For `Cc1cccnc1NCc1ccc(O)c2ncccc12`, the IC50 (Nonstructural protein 1) was 14.1 µM (active), the EC50 [1] was 2.9 µM (active) and the EC50 [2] was 13.6 µM (active). The EC50 (Streptococcus) was 3.33 µM (active) and the EC50 [3] was 10 µM (active).

With `COc1ccc(-c2[nH]ncc2/C=C(\C#N)C(=O)NC2CC2)cc1` the IC50 (Leucine aminopeptidase) was 36.9 µM (active).

In the case of `CCOC(=O)c1nnn2c1nc(Nc1cccc(C(F)(F)F)c1)c1ccccc12`, the IC50 [4] is reported as > 50 µM (inactive) and the IC50 [5] is reported as 25.1 µM (active).

In the case of `CN(C)/C=C/C(=O)c1nnn(C2CCCCC2)c1NC1CCCCC1`, the EC50 [2] is reported as > 20 µM (not active) and the EC50 [3] is reported as > 20 µM (not active).

With `Cc1cc(=O)oc2c(CN3CCCCC3)c(O)c(Cl)cc12` the IC50 (Aminopeptidase N) was 59.6 µM (active).

With `O=C(NNC(=O)c1ccccc1O)c1ccc(Cl)c(S(=O)(=O)N2CCc3ccccc32)c1` the IC50 [6] was 77.9 µM (inactive) and the AC50 (INS1) was 4.28 µM (active).

In the case of `N#C[C@H]1[C@H](c2ccc(C#CC3CCCCC3)cc2)[C@@H](CO)N1C(=O)Nc1ccc(F)cc1`, the AC50 [7] is reported as 9.27 µM (active) and the AC50 [8] is reported as 4.35 µM (active).

In the case of `COC(=O)c1cc(NC(=O)c2ccccc2)c(=O)oc1/C=C/Nc1ccc(Oc2ccccc2)cc1`, the IC50 [4] is reported as > 50 µM (inactive), the IC50 [5] is reported as 6.82 µM (active) and the AC50 [9] is reported as 60.3 µM (active).

For `N#C[C@H]1[C@H](c2ccc(C#Cc3ccccc3F)cc2)[C@@H](CO)N1C(=O)C1CCCC1`, the AC50 [7] was > 39 µM (inactive) and the AC50 [8] was 4.27 µM (active).

For `O=C(Nc1ccc2nc(-c3ccco3)c(-c3ccco3)nc2c1)N1CCSCC1`, the IC50 [10] was 3.36 µM (active).

In the case of `CCCCCCCCc1nnc(SC(C)C(=O)O)[nH]1` (configuration not stated), the IC50 (Leucine aminopeptidase) is reported as 5.32 µM (active).
